Measurements as given in patent US20050165068A1, “Compounds, in particularly of urea derivatives or esters of haloacetamidobenzoic acid and use thereof for the treatment of parasitic diseases” (priority 2002, published 2005).
≈ marks a conversion by molar mass, not a printed value. Like-named read-outs stand apart in the source and are kept apart here.

Key:
[1] = tested on: mouse microphages; settings: times less on mouse microphages than on the parasite
Method: (§3) A tetrazolium salt (MTT) has been used as marker. In the case of L. mexicana, the molecules were evaluated relative to the intracellular amastigote stage (macrophages of Balb/c), the stage encountered in patients.

[2] = tested on: promastigote phase of Leishmania; settings: 96 hours of contact, MTT marker; values of FIG. 1 not given
[3] = tested on: L. infantum; assay: in vivo anti-Leishmania activity, visceral model (L. infantum); parameters: species or system mice; settings: L. infantum intravenous, MF 29 10 mg/kg intra-peritoneal once per day for 10 days, Glucantime subcutaneous
Method: (§1) In promastigotes of L. major (2×106) or of L. infantum (10^7) in the stationary phase are inoculated respectively by the subcutaneous route in the rear right paw or by intravenous route in the caudal vein. […] Meglumine antimoniate (Glucantime-Speca™ Rhone-Poulenc, Paris, France) containing 85 mg of pentavalent antimony per ml is administered by subcutaneous route according to the same therapeutic scheme. The control group receives the solvent of MF 29 and of the saline solution at 0.9% by intra-peritoneal route.
(§2) For the cutaneous model, the efficacy of the treatment is evaluated by measuring the edema at the infected paw with the help of an electronic sliding foot (ref. 56371; Polylabo; Strasburg, France), and reported relative to the thickness of the counter-lateral paw. The mice are sacrificed […] after infection. A fragment of derma, of the spleen, of the liver and of the polyptic ganglion draining the lesion are set aside to determine the parasitic load in situ. As to the model of visceral leishmaniosis, the same protocol is carried out on the spleen and the liver. The parasitic load is expressed by the log10 of the number of parasites per gram of tissue.

[4] = tested on: tubuline of beef brain
Method: The anti-microtubular activity of MF 29 is also compared to that of MF 191 and to that of the vinblastine on the assembly of the tubulines of beef brain.
Experiments carried out to measure the capacity of in vitro polymerization of the tubuline were carried out with the help of a spectrophotometer provided with a circulating bath system at 37° C. and an automatic well loader permitting simultaneous measurement of several tests. The optical density which increases with polymerization of the assembly of the tubulines of the brain according to Lebanski et al., 1973, that is induced with the promoter MAP2 is measured at 345 nm every thirty seconds.

[5] = tested on: Plasmodium falciparum
Text: MF 29 has been evaluated in a test of inhibition of the proliferation of Plasmodium falciparum (mortal species) in an intra-erythrocytic model by measuring the incorporation of hypoxanthine.

[6] = tested on: L. mexicana intracellular amastigote stage; assay: activity on the intracellular amastigote stage of L. mexicana in macrophages of Balb/c; settings: times greater than GLUCANTIME
Method: as §3

[7] = tested on: L. major; assay: in vivo anti-Leishmania activity, cutaneous model (L. major in Balb/c mice); settings: MF 29 10 mg/kg intra-peritoneal once per day for 10 days, Glucantime subcutaneous, same scheme
Method: as §1, §2

[8] = tested on: Trypanosoma cruzi Peruvian strain
Method: The in vivo anti-Trypanosoma activity of MF 29 has also been studied. Mice were infected with Trypanosoma cruzi Peruvian strain by intravenous route. Four days post-infection, the mice are treated with MF 29 by intra-peritoneal route once per day in the amount of 10 mg/Kg for 10 days. The control group receives the solvent. The effectiveness of the treatment is evaluated by measuring parasitemia and followed by mortality.

[9] = tested on: promastigotes of L. mexicana; settings: treatment for one hour at 5 μg/ml, sweeping electron microscope
[10] = tested on: MRC5 line (normal tissue of fetal lung); settings: times less for MRC5 line than on the parasite
Method: as §3

With `CCOC(=O)c1ccc(NC(=O)CCl)cc1` [GR 37, 4-chloroacetamido ethyl benzoate] as the compound, how does the “cytotoxicity on mouse macrophages relative to the parasite” value [1] read?
Its value is 1000 times.

And the “in vitro anti-Leishmania activity (CI50 of Table 1 / FIG. 1, described in words)” value [2]?
The value was “extraordinary activity”.

`CCOC(=O)c1ccccc1NC(=O)CCl` [GR 38] was tested. Which “in vitro anti-Leishmania activity (CI50 of Table 1 / FIG. 1, described in words)” value [2] did it give?
Its value is “similar”.

With `CCOC(=O)c1cccc(NC(=O)CCl)c1` [MF 29, 3-chloroacetamido ethyl benzoate] as the compound, how does the “reduction of the parasitic load in the liver” value [3] read?
Its value is 25%.

What about the “reduction of the parasitic load in the spleen” value [3] of the same compound?
Its value is 56%.

What about the “inhibition of polymerization of tubuline of beef brain” value ([4]; 37° C., MAP2 promoter, FIG. 4C) of the same compound?
The value was “weak inhibitor”.

What about the “inhibition of polymerization of tubuline of beef brain at doubled concentration” value ([4]; doubled concentration of the drug, FIG. 4D) of the same compound?
Its value is “significant inhibition”.

What about the CI50 ([5]; chloroquinine-sensitive strain (FCB1-Columbia)) of the same compound?
Its CI50 is 0.1 µg/mL (≈ 0.414 µM).

What about the CI50 ([5]; strain (Nigerian strain) resistant to chloroquinine) of the same compound?
Its CI50 is 0.1 µg/mL (≈ 0.414 µM).

And the “activity in the amastigote form relative to GLUCANTIME” value [6]?
The value was 300 times.

And the “reduction of the hepatic parasitic load” value [7]?
Its value is 96%.

What about the “reduction of the polyptic ganglion parasitic load” value [7] of the same compound?
The value was 59%.

What about the “reduction of the spleen parasitic load” value [7] of the same compound?
The value was 97%.

What about the mortality ([8]; 10 mg/Kg intra-peritoneal once per day for 10 days, FIG. 5) of the same compound?
The mortality was “retardation in the curve of mortality”.

What about the mortality ([8]; 20 mg/kg, preliminary results) of the same compound?
Its mortality is “greater reduction of mortality”.

And the “reduction of the parasitic load” value ([8]; 8th day, versus control group, 10 mg/Kg intra-peritoneal)?
Its value is 70%.

What about the “parasitemia (load)” value ([8]; 8th day, 10 mg/Kg intra-peritoneal once per day for 10 days from four days post-infection) of the same compound?
Its value is 200 trypomastigotes per 50 fields.

And the “parasitemia versus control group” value ([8]; 10th day, 10 mg/Kg intra-peritoneal)?
The value was “equivalent for the two groups”.

What about the “in vitro anti-Leishmania activity (CI50 of Table 1 / FIG. 1, described in words)” value [2] of the same compound?
Its value is “high activity”.

And the “effect on the flagella” value [9]?
The value was “do not seem to be disturbed”.

And the “morphological changes of the cellular body” value [9]?
The value was “multiple pores”.

What about the “cytotoxicity for the MRC5 line relative to that obtained on the parasite” value [10] of the same compound?
The value was 400 times.

With “meglumine antimoniate [Glucantime, reference compound]” as the compound, how does the “reduction of the parasitic load in the liver” value [3] read?
The value was 30%.

What about the “reduction of the parasitic load in the spleen” value [3] of the same compound?
Its value is 66%.

What about the “reduction of the polyptic ganglion parasitic load” value [7] of the same compound?
The value was 44%.
